Assay results published in PubChem BioAssay AID977605 (Broad Institute, 2014).
Activity calls are given as the source filed them.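 How the source made its calls: active means fitted curve reaches 40% activation below the top valid tested dose, in every test run; inconclusive means test runs disagree on the call; inactive means the rest, including effects opposite to the expected direction.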

Test: endothelial E-selectin upregulation by compounds – imaging, HUVEC, cherry-picked samples, dose response (AID 977605);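 further: signal is the share of imaged cells scored positive for E-selectin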
Conditions: HUVEC E-selectin immunostaining, percent of TNF-alpha response over vehicle

SMILES	activation (at 19.5 µM (top of the series))	further results
C[C@@H]1CN([C@H](C)CO)S(=O)(=O)c2ccc(-c3ccccc3)cc2O[C@H]1CN(C)S(C)(=O)=O	-0.007% (inactive)	–
C[C@H]1CN([C@@H](C)CO)C(=O)c2cccc(NC(=O)Nc3ccc(F)cc3)c2O[C@H]1CN(C)CC1CCCCC1	-0.099% (inactive)	–
O=S(=O)(Nc1cccc2[nH]ncc12)c1cccs1	-0.069% (inactive)	–
CCC(=O)N1CC[C@@H]2[C@H](CO)Nc3ccc(C#Cc4ccc(F)cc4)cc3[C@@H]21	–	activation (at 18 µM (top of the series)): 27.2% (inactive)
Cc1noc(C)c1S(=O)(=O)Nc1ccc2c(c1)C(=O)N([C@H](C)CO)C[C@@H](C)[C@@H](CN(C)Cc1ccc3c(c1)OCO3)O2	-0.086% (inactive)	–
COC(=O)c1ccc(CNC(=O)c2ccc(OC)c(S(=O)(=O)NC3CCCC3)c2)cc1	-0.105% (inactive)	–
CN(CC(=O)Nc1cccc(F)c1)CC(=O)N1CCc2ccccc21	0.11% (inactive)	–
C[C@@H]1CN([C@@H](C)CO)C(=O)Cc2cc(NC(=O)c3ccncc3)ccc2O[C@@H]1CN(C)C(=O)Nc1ccc(C(F)(F)F)cc1	-0.044% (inactive)	–
CNC(=O)C[C@H]1CC[C@H]2[C@@H](COc3ccc(NC(=O)c4cccc(F)c4)cc3C(=O)N2C)O1	1.5% (inactive)	–
C[C@H]1CN([C@@H](C)CO)C(=O)c2cc(NC(=O)CCC(F)(F)F)ccc2O[C@@H]1CN(C)Cc1ccc(C(F)(F)F)cc1	0.111% (inactive)	–
C[C@H](CO)N1C[C@H](C)[C@H](CN(C)C(=O)Nc2ccc(C(F)(F)F)cc2)Oc2ccc(NC(=O)Cn3cnnn3)cc2CC1=O	0.063% (inactive)	–
CC(C)NC(=O)Nc1ccc2c(c1)CC(=O)N([C@H](C)CO)C[C@H](C)[C@H](CN(C)Cc1ccc(Cl)c(Cl)c1)O2	–	activation (at 21 µM (top of the series)): 0.284% (inactive)
C[C@@H]1CN([C@@H](C)CO)C(=O)c2cccc(NS(=O)(=O)c3cn(C)cn3)c2O[C@H]1CN(C)C(=O)Nc1ccc2c(c1)OCO2	-0.015% (inactive)	–
CCOC(=O)N1CCN(c2c(N3CCOCC3)c(=O)c2=O)CC1	7.45% (inactive)	–
C[C@@H]1CN([C@@H](C)CO)C(=O)Cc2cc(NC(=O)Nc3ccc(F)cc3)ccc2O[C@H]1CN(C)S(=O)(=O)c1ccccc1	-0.074% (inactive)	–
CCC(=O)Oc1cccc(C(=O)Nc2cccc(NC(=O)c3ccco3)c2)c1	-0.083% (inactive)	–
C[C@H]1CN([C@@H](C)CO)C(=O)Cc2cc(NS(=O)(=O)c3ccccc3)ccc2O[C@H]1CN(C)Cc1ccc(C(F)(F)F)cc1	10.6% (inactive)	–
C[C@@H]1CN([C@H](C)CO)C(=O)c2cccc(NC(=O)Nc3ccc(F)cc3)c2O[C@H]1CN(C)Cc1ccncc1	-0.015% (inactive)	–
CC(C)NC(=O)Nc1ccc2c(c1)C(=O)N([C@@H](C)CO)C[C@@H](C)[C@H](CN(C)Cc1ccc(C(=O)O)cc1)O2	-0.098% (inactive)	–
C[C@@H]1CN([C@H](C)CO)C(=O)Cc2cc(NC(=O)c3ccncc3)ccc2O[C@H]1CN(C)S(C)(=O)=O	-0.058% (inactive)	–
CC(C)NC(=O)N(C)C[C@@H]1Oc2ccc(NC(=O)Cn3cnnn3)cc2C(=O)N([C@H](C)CO)C[C@H]1C	–	activation (at 21 µM (top of the series)): -0.15% (inactive)
Cc1c(N(C)C(=O)COc2ccc3ccccc3c2)c(=O)n(-c2ccccc2)n1C	-0.279% (inactive)	–
C[C@@H]1CN([C@H](C)CO)C(=O)c2cc(NC(=O)Cc3ccccc3)ccc2O[C@H]1CN(C)C(=O)NC1CCCCC1	0.096% (inactive)	–
C[C@H](CO)N1C[C@H](C)[C@@H](CN(C)C(=O)NC2CCCCC2)Oc2c(NC(=O)Nc3ccc(F)cc3)cccc2C1=O	0.219% (inactive)	–

SMILES	activation (at 19.5 µM (top of the series))	further results
COc1ccc(OCCN2CCN(S(=O)(=O)c3ccccc3C(F)(F)F)CC2)cc1	-0.023% (inactive)	–
CCOC(=O)c1cccc(NC(=O)c2cc(C)nn2-c2ccccc2)c1	0.657% (inactive)	–
CC(C)NC(=O)N(C)C[C@@H]1Oc2ccc(NC(=O)CCC(F)(F)F)cc2CC(=O)N([C@@H](C)CO)C[C@H]1C	0.007% (inactive)	–
C[C@@H]1CN([C@H](C)CO)C(=O)c2cc(N(C)C)ccc2O[C@H]1CN(C)S(=O)(=O)c1cn(C)cn1	-0.007% (inactive)	–
C[C@H]1CN([C@@H](C)CO)C(=O)c2cccc(NC(=O)c3ccc(-c4nccs4)cc3)c2O[C@H]1CN(C)Cc1ccc(Oc2ccccc2)cc1	–	activation (at 21 µM (top of the series)): 0.436% (inactive)
CNC[C@H]1Oc2ccc(NS(=O)(=O)c3ccc(OC)cc3)cc2CC(=O)N([C@@H](C)CO)C[C@@H]1C	-0.213% (inactive)	–
Cc1ccccc1CCN1CCCC(CN(C)C(=O)c2ccc3ncccc3c2)C1 (stereo not given)	36.6% (inactive)	–
Cc1noc(C)c1NC(=O)N(C)C[C@H]1Oc2ccc(NS(=O)(=O)c3c(C)noc3C)cc2C(=O)N([C@H](C)CO)C[C@@H]1C	-0.221% (inactive)	–
C[C@@H]1CN([C@H](C)CO)S(=O)(=O)c2ccc(-c3ccncc3)cc2O[C@H]1CN(C)Cc1ccc(Oc2ccccc2)cc1	–	activation (at 21 µM (top of the series)): 23.2% (inactive)
COc1ccccc1CSc1nc2c(c(=O)n(C)c(=O)n2C)n1C	-0.003% (inactive)	–
C[C@H](CO)N1C[C@H](C)[C@H](CN(C)Cc2ccc(C(F)(F)F)cc2)Oc2ccc(NS(=O)(=O)c3cn(C)cn3)cc2CC1=O	-0.066% (inactive)	–
C[C@H]1CN([C@@H](C)CO)C(=O)c2cc(NC(=O)Nc3ccc(F)cc3)ccc2O[C@H]1CN(C)S(C)(=O)=O	4.69% (inactive)	–
C[C@@H]1CN([C@H](C)CO)C(=O)c2c(c3ccccc3n2C)-c2ccccc2CO[C@@H]1CN(C)Cc1ccccc1C(F)(F)F	–	activation (at 10 µM (top of the series)): 0.002% (inactive)
C[C@@H]1CN([C@@H](C)CO)C(=O)c2cc(NC(=O)CCCCCC(=O)Nc3ccccc3N)ccc2O[C@H]1CN(C)C(=O)Nc1ccc2c(c1)OCO2	–	activation (at 21 µM (top of the series)): 0.05% (inactive)
C[C@H]1CN([C@@H](C)CO)C(=O)c2cc(NC(=O)CCN3CCOCC3)ccc2O[C@H]1CN(C)S(C)(=O)=O	-0.165% (inactive)	–
N#Cc1ccc(-c2csc(NC3=NCCCCC3)n2)cc1	-0.002% (inactive)	–
C[C@H]1CN([C@@H](C)CO)C(=O)c2cccc(NS(=O)(=O)c3ccc(F)cc3)c2O[C@H]1CN(C)S(=O)(=O)c1cccs1	-0.103% (inactive)	–
C[C@@H]1CN([C@H](C)CO)C(=O)c2cc(C3=CCCC3)cnc2O[C@H]1CN(C)C(=O)Nc1ccccc1	-0.157% (inactive)	–
COc1ccc(CNS(=O)(=O)c2ccc3c(c2)C(C)(C)C(=O)N3C)cc1	0.021% (inactive)	–
C[C@H]1CN([C@@H](C)CO)C(=O)c2cc(Br)cnc2O[C@H]1CN(C)Cc1cccc(F)c1	-0.038% (inactive)	–
COc1ccc2[nH]c(=O)c(CN(c3ccccc3)S(=O)(=O)c3ccccc3)cc2c1	3% (inactive)	–
CSc1nc2c(cnn2-c2ccc(C)c(C)c2)c(=O)[nH]1	0.487% (inactive)	–
COc1ccc(S(=O)(=O)Nc2ccc3c(c2)C(=O)N([C@H](C)CO)C[C@H](C)[C@@H](CN(C)C(=O)Nc2cccc4ccccc24)O3)cc1	0.023% (inactive)	–
COc1ncnc(OC)c1S(=O)(=O)NCc1ccccc1	-0.033% (inactive)	–

SMILES	activation (at 19.5 µM (top of the series))	further results
Fc1ccc(NC(=S)N2CCN(c3cccc(C(F)(F)F)c3)CC2)cc1	-0.235% (inactive)	–
C[C@@H]1CN([C@H](C)CO)C(=O)c2cccc(NC(=O)Nc3ccccc3)c2O[C@@H]1CN(C)S(=O)(=O)c1ccccc1	0.268% (inactive)	–
C[C@@H]1CN([C@H](C)CO)C(=O)c2cc(NS(=O)(=O)c3cn(C)cn3)ccc2O[C@H]1CN(C)C(=O)Nc1ccc2c(c1)OCO2	0.041% (inactive)	–
C[C@H](CO)N1C[C@H](C)[C@H](CN(C)S(=O)(=O)c2ccc(Cl)cc2)Oc2c(NC(=O)C3CCCCC3)cccc2C1=O	0.576% (inactive)	–
COc1ccc(C(=O)N(CCc2ccccc2)Cc2ccccc2)c(OC)n1	-0.136% (inactive)	–
C[C@H](CO)N1C[C@H](C)[C@H](CN(C)Cc2ccncc2)Oc2ccc(NS(C)(=O)=O)cc2CC1=O	–	activation (at 21 µM (top of the series)): 0.077% (inactive)
CN(C)C1(CNC(=O)C2CCN(S(=O)(=O)c3cc(Cl)ccc3Cl)CC2)CCCCC1	-0.207% (inactive)	–
CC(C)NC(=O)Nc1cccc2c1O[C@H](CN(C)Cc1ccncc1)[C@@H](C)CN([C@H](C)CO)C2=O	–	activation (at 21 µM (top of the series)): 0.115% (inactive)
COc1ccc(N2C(=O)c3ccccc3C(C)(C)C2=O)cc1	-0.152% (inactive)	–
Cc1noc(C)c1S(=O)(=O)Nc1ccc2c(c1)C(=O)N([C@@H](C)CO)C[C@H](C)[C@H](CN(C)Cc1ccc3c(c1)OCO3)O2	-0.065% (inactive)	–
CN(CC(=O)Nc1ccc(Cl)c(Cl)c1)C1CCCCC1	-0.064% (inactive)	–
C[C@H]1CN([C@@H](C)CO)C(=O)Cc2cc(NC(=O)Cc3cn(C)c4ccccc34)ccc2O[C@H]1CN(C)Cc1ccc(C(F)(F)F)cc1	16.2% (inactive)	–
O=C(NC(=S)N1CCN(c2ccc([N+](=O)[O-])cc2)CC1)c1ccccc1	-0.117% (inactive)	–
CC(=O)Nc1ccc(CNc2nc(NC(C)C)nc3cc(-c4ccccc4)sc23)cc1	1.22% (inactive)	–
O=C(Nc1cccc(S(=O)(=O)NCc2ccco2)c1)c1cccc(Cl)c1	0.285% (inactive)	–
C[C@@H]1CN([C@@H](C)CO)C(=O)c2cc(NS(=O)(=O)c3cn(C)cn3)ccc2O[C@H]1CN(C)C(=O)Nc1ccc(F)cc1	–	activation (at 21 µM (top of the series)): 0.066% (inactive)
Cc1ccc(S(=O)(=O)Nc2ccc3c(c2)C(=O)N([C@H](C)CO)C[C@H](C)[C@H](CN(C)C(=O)Nc2cccc4ccccc24)OCCCC[C@@H](C)O3)cc1	7.64% (inactive)	–
N#CC1(NC(=O)CN2C(=O)c3ccccc3C2=O)CCCCC1	16.1% (inactive)	–
C[C@@H]1CN([C@H](C)CO)C(=O)c2cc(NC(=O)CCCCCC(=O)Nc3ccccc3N)ccc2O[C@H]1CN(C)C(=O)Nc1ccc2c(c1)OCO2	–	activation (at 21 µM (top of the series)): -0.113% (inactive)
C[C@H](CO)N1C[C@H](C)[C@@H](CN(C)S(=O)(=O)c2ccccc2)Oc2ccc(NC(=O)Nc3ccc(C(F)(F)F)cc3)cc2C1=O	0.863% (inactive)	–
CC(C)(C)c1ccc(C(=O)Nc2ccc3c(c2)C(=O)NC3=O)cc1	0.042% (inactive)	–
CC(C)C[C@@H]1COc2cc(N3CCC[C@H]3CO)ccc2S(=O)(=O)N1	-0.153% (inactive)	–
